A short description of this assay: The ability to displace [3H]colchicine binding to rat brain tubulin protein. Set-up: concentration or dose not given beside the values. The settings on record: concentration not given here.

Structures are written as SMILES.

By inhibition is commonly meant the percentage by which the read-out fell short of the control.

Take `COc1cc2c(c(OC)c1OC)-c1ccc(OC)c(=O)cc1[C@@H](NC(=O)[C@@H]1CC(C)(C)N([O])C1(C)C)CC2`: the inhibition was 0%.

In the case of `COc1cc2c(c(OC)c1OC)-c1ccc(OC)c(=O)cc1[C@@H](NC(=O)COC(=O)C1CC(C)(C)N([O])C1(C)C)CC2` (stereo partly specified), the inhibition stood at 60%.

As to `COc1c(COC(=O)C2CC(C)(C)N([O])C2(C)C)c2c(c(OC)c1OC)-c1ccc(OC)c(=O)cc1[C@@H](NC(C)=O)CC2` (stereo partly specified), the inhibition was determined as 24%.

Compound `COc1cc2c(c(OC)c1OC)-c1ccc(OC)c(=O)cc1[C@@H](NC(=O)COC(=O)[C@H]1CC(C)(C)N([O])C1(C)C)CC2` yielded an inhibition of 65%.

As for `COc1cc2c(c(OC)c1OC)-c1ccc(OC)c(=O)cc1[C@@H](NC(=O)[C@H]1CC(C)(C)N([O])C1(C)C)CC2`, the inhibition was 0%.

As for `COc1cc2c(c(OC)c1OC)-c1ccc(OC)c(=O)cc1[C@@H](NC(=O)COC(=O)[C@@H]1CC(C)(C)N([O])C1(C)C)CC2`, the inhibition stood at 72%.

(Values after ChEMBL document CHEMBL1122550.)
